Values joined by “and” are separate entries in the source; they are usually repeats but may differ in a detail not shown here. Identical values can stand only once. Where a SMILES comes first, the peptide text is derived from it.
Columns and labels:
E. coli = settings: MHB, 37 °C, 18 h, OD600; for Discrete-well MIC (CLSI definition, two-fold dilutions): E. coli ~5 x 10^5 CFU/mL, lowest concentration with ≤ 10 % growth; for Extrapolated (interpolated) MIC (4-parameter logistic fit): E. coli, concentration at 10 % growth by curve fit
Description: Plates were sealed and incubated
(1 picture or pasted object on this page, not shown here)

T-47D cells [1] = tested on: T-47D cells
T-47D cells [2] = experiment: Mitochondrial colocalization imaging with MitoTracker Red; type: cell-based, Human; settings: T-47D live cells
Description: Cells were plated in an IBIDI 8-well glass bottom chamber at a density of 25,000 cells per well in media and allowed to adhere overnight at 37 °C, 5% CO2. Fresh 10 mM stock solutions of probes were prepared in DMSO on the day of experimentation. Working solutions of all compounds in media were prepared on the day of experimentation. Culture media was removed from the wells, and 200 mL of 100 nM probe was added to the desired wells and placed in an incubator for 30 min. Media was removed from the wells, and 200 mL of 100 nM MitroTracker-Red FM (ThermoFisher, M22425) was added to the desired wells and placed in an incubator for 15 min. Staining media was removed, and cells were washed with 200 μL of PBS for 5 min (repeated 3 times). PBS was removed and replaced with 200 mL of fresh medium, followed by immediate imaging. Five images were captured for each well. Colocalization analysis for Pearson’s R (R) and Mander’s Colocalization Coefficient (MCC) was conducted using the EzColocalization Plugin for ImageJ.
Colocalization studies – EzColocalization Details. Co-localization studies were done using
EzColocalization. EzColocalization is an ImageJ Application Program Interface (APIs)-an open-source
plugin, where individual cells can be highlighted and colocalization studies can be run across three
channels. The metric matrix for TOS (linear scaling) in the heatmap quantifies colocalization. FT […]

CC(=O)N[C@@H](CCCCN)C(=O)N[C@@H](CCCNC(=N)N)C(=O)N[C@@H](Cc1c[nH]c2ccccc12)C(=O)N[C@@H](CCCNC(=N)N)C(=O)N[C@@H](Cc1c[nH]c2ccccc12)C(N)=O [2g] (Ac-KRWRW-NH2)
Discrete-well MIC (CLSI definition, two-fold dilutions) (E. coli): 125 µM
Extrapolated (interpolated) MIC (4-parameter logistic fit) (E. coli): 0.0693 mM and 0.069 ± 0.06 mM

COc1ccc(C(=O)c2c(-c3ccc(OC)cc3)cc(-c3ccc(OC)cc3)[n+](CCCC[C@H](NC(=O)[C@H](CC(=O)O)NC(=O)[C@H](CC(C)C)NC(C)=O)C(=O)N[C@H](C(=O)N[C@@H](CC(N)=O)C(=O)N[C@@H](CCCNC(=N)N)C(N)=O)C(C)C)c2-c2ccc(OC)cc2)cc1 [5b]
Percentage cell death (average) (T-47D cells [1]; 100 nM, 1 h, Annexin V/PI, n = 3 biological replicates, one average given for 4f and 5b): 4.6%

COc1ccc(C(=O)c2c(-c3ccc(OC)cc3)cc(-c3ccc(OC)cc3)[n+](CCCC[C@H](NC(C)=O)C(=O)N[C@@H](CCCNC(=N)N)C(=O)N[C@@H](Cc3c[nH]c4ccccc34)C(=O)N[C@@H](CCCNC(=N)N)C(=O)N[C@@H](Cc3c[nH]c4ccccc34)C(N)=O)c2-c2ccc(OC)cc2)cc1 [5g]
Discrete-well MIC (CLSI definition, two-fold dilutions) (E. coli): 125 µM
Extrapolated (interpolated) MIC (4-parameter logistic fit) (E. coli): 0.0715 mM and 0.072 ± 0.01 mM

COc1cccc2c1C(=O)c1c(O)c3c(c(O)c1C2=O)C[C@@](O)(C(=O)CO)C[C@@H]3O[C@H]1C[C@H](N)[C@H](O)[C@H](C)O1 [Dox, doxorubicin]
Pearson's coefficient (colocalization with MitoTracker Red) (T-47D cells [2]; 100 nM probe, 100 nM MitoTracker Red, EzColocalization/ImageJ, 1 = perfect colocalization, -1 = none): 0.397
subcellular localization (T-47D cells [2]; 100 nM, co-stained with MitoTracker Red): primarily colocalized with the nucleus
survival less than DOX-Py (T-47D cells [1]; 100 nM, 1 h, Annexin V/PI, n = 3 biological replicates): 20%
survival rate (T-47D cells [1]; Annexin V/PI flow cytometry (100 nM, 1 h per Figure S25)): 40%
